{"source": "patent US20030153603A1", "about": "“Agent for enhancing accumulation of drugs in tumor tissues” (Toray Industries, Inc., priority 1999, published 2003)", "format_in_all_cases": "in vivo, Donryu rats", "key": {"tumor tissue [1]": {"tested_on": "tumor tissue", "test": "Change in blood flow in various tissues after 0.2, 2 or 20 μg beraprost sodium (Doppler type blood flowmeter)", "conditions": "0.2, 2 or 20 μg injected", "procedure": "A 136B cells were transplanted to dorsa of feet of Donryu rats to form solid tumors. To each of the tumor-bearing rats, 0.5 mL of solution of Evans Blue (1.5%) in physiological saline was administered i.v. and then 2 μg of beraprost sodium was injected into common iliac artery which is the tumor-controlling artery. The blood vessel perneability-increasing effect was evaluated by comparing the amounts of the accumulated Evans Blue-albumin complex in the tissue, which is the index of the blood vessel permeability in the tumor tissue, of the beraprost sodium-administered group and of the non-administered group. As a result, it was observed that by administration of 2 μg of beraprost sodium, the blood vessel permeability was increased to about 3.4 times that of the non-administered group (P<0.01). The amount of the accumulated Evans Blue was spectrophotometrically quantified after extraction with formamide at 30° C. for 48 hours. Into common iliac artery which is the tumor-controlling artery of the tumor on the dorsum of foot of each of the tumor-bearing rats prepared in the same manner as in Examples 1 to 3, 0.2, 2, or 20 μg of beraprost sodium was arterially injected and the change in the blood flow was measured by a Doppler type blood flowmeter. […]"}, "tumor tissue [2]": {"tested_on": "tumor tissue", "test": "Permeability of Evans Blue in tumor tissue, beraprost sodium arterially administered vs not administered", "conditions": "2 μg injected into common iliac artery; A 136B solid tumor on dorsum of foot; P<0.01", "procedure": "(§1) A 136B cells were transplanted to dorsa of feet of Donryu rats to form solid tumors. To each of the tumor-bearing rats, 0.5 mL of solution of Evans Blue (1.5%) in physiological saline was administered i.v. and then 2 μg of beraprost sodium was injected into common iliac artery which is the tumor-controlling artery. The blood vessel perneability-increasing effect was evaluated by comparing the amounts of the accumulated Evans Blue-albumin complex in the tissue, which is the index of the blood vessel permeability in the tumor tissue, of the beraprost sodium-administered group and of the non-administered group. As a result, it was observed that by administration of 2 μg of beraprost sodium, the blood vessel permeability was increased to about 3.4 times that of the non-administered group (P<0.01). The amount of the accumulated Evans Blue was spectrophotometrically quantified after extraction with formamide at 30° C. for 48 hours."}, "tumor tissue [3]": {"tested_on": "tumor tissue", "test": "Change in blood flow in various tissues by continuous arterial injection (Doppler type blood flowmeter)", "procedure": "A 136B cells were transplanted to dorsa of feet of Donryu rats to form solid tumors. To each of the tumor-bearing rats, 0.5 mL of solution of Evans Blue (1.5%) in physiological saline was administered i.v. and then 2 μg of beraprost sodium was injected into common iliac artery which is the tumor-controlling artery. The blood vessel perneability-increasing effect was evaluated by comparing the amounts of the accumulated Evans Blue-albumin complex in the tissue, which is the index of the blood vessel permeability in the tumor tissue, of the beraprost sodium-administered group and of the non-administered group. As a result, it was observed that by administration of 2 μg of beraprost sodium, the blood vessel permeability was increased to about 3.4 times that of the non-administered group (P<0.01). The amount of the accumulated Evans Blue was spectrophotometrically quantified after extraction with formamide at 30° C. for 48 hours. Into common iliac artery which is the tumor-controlling artery of the tumor on the dorsum of foot of each of the tumor-bearing rats prepared in the same manner as in Examples 1 and 2, 0.3 mL of beraprost sodium solution (30 μg/mL) in middle-length fatty acid was arterially injected continuously for 1 minute. The changes in the blood flow in various tissues were measured by a Doppler type blood flowmeter. The rate of change was expressed in terms of % of the average during 10 minutes after the beginning of the arterial injection based on the average during several minutes before the arterial injection. […] This was the phenomenon brought about by the specific relaxation of the blood vessels in the tumor tissues."}, "tumor tissue [4]": {"tested_on": "tumor tissue", "test": "Permeability of Evans Blue in various tissues, beraprost sodium intravenously administered vs not administered", "conditions": "20 μg injected into the tail vein; tumor-bearing rats; P<0.05", "procedure": "as §1, with “hours. […] The blood vessel permeability-increasing effect was evaluated by comparing the amounts of the accumulated Evans Blue-albumin complex in the tissues of the beraprost sodium-administered group and of the non-administered group. […] The amount of the accumulated Evans Blue was quantified in the same manner as in Example 1.” for “hours.”"}}, "data": [{"compound": "CC#CCC(C)[C@H](O)/C=C/C1[C@H](O)C[C@@H]2Oc3c(CCCC(=O)O)cccc3[C@H]12", "note": "(stereo partly shown) [beraprost sodium]", "values": [{"measurement": "decrease in the blood flow in normal tissue organs such as liver and kidney", "setting": "tumor tissue [1]", "value": "not observed"}, {"measurement": "blood flow in the tumor", "setting": "tumor tissue [1]; average during 10 minutes after start vs before", "value": "Sharp decrease"}, {"measurement": "blood vessel permeability (accumulated Evans Blue-albumin complex in tumor tissue)", "setting": "tumor tissue [2]", "value": "about 3.4 times that of the non-administered group"}, {"measurement": "blood flow in the tumor compared with kidney", "setting": "tumor tissue [3]; continuous arterial injection at 10 μg/kg/min, P<0.05", "value": "significantly more decreased than in kidney"}, {"measurement": "blood flow in the tumor compared with kidney and liver", "setting": "tumor tissue [3]; continuous arterial injection at 17 μg/kg/min, tumor vs. liver P<0.05, tumor vs. kidney P<0.01", "value": "significantly more decreased than in kidney and in liver"}, {"measurement": "blood flow in the tumor tissue", "setting": "tumor tissue [3]; continuous arterial injection for 1 minute into common iliac artery, average during 10 minutes after start vs before", "value": "sharply decreased dose-dependently"}, {"measurement": "blood vessel permeability (accumulated Evans Blue-albumin complex in the tissues)", "setting": "tumor tissue [4]", "value": "about 1.5 times that of the non-administered group"}]}]}
